Reference: patent US20080176781A1, “Perfumes for linear citrus release in rinse-off systems” (priority 2007, published 2008)

Test: Odor detection threshold (ODT)
Design: unit not given here
Text: Within these defined water-release groups, odorants are then further described based on their experimentally determined odor detection thresholds (ODT) to further characterize the odor impact or olfactive intensity of a citrus and other olfactive types within the herein-described released group of odorants.
Upon their release in headspace, odorants are detected based on their odor detection threshold values. Odor detection thresholds are defined as the lowest concentration of odorants in a selected medium (air or water) to be detected. By including odor values of odorants in the model, one can further improve on the values for predicted performance of once odorants are released from the partition into the air.
Various databases for experimental odor detection threshold values in various partitions such as water and air are available. See Compilation of Odor and Taste Threshold Values Data, American Society for Testing and Materials, F. A. Fazzalari Editor; Booleans Aroma Chemical Information Service (BACIS)).

Compound	odt (Table 15)	odt (Table 17)	odt (Table 13)
CCCCCCCCCC=O [ALDEHYDE C10 (DECANAL), DECANAL]	6.7		
C=CC(C)(O)CCC=C(C)CC (mixture of isomers) [ETHYL LINALOOL]		120	
CC/C=C\CCOC(=O)c1ccccc1O [CIS-3-HEXENYL SALICYLATE]			1.90
CCCCCCCCCCCC#N [LAURONITRILE]			5.70
C=CCOC(=O)CCC1CCCCC1 [ALLYL CYCLOHEXYL PROPIONATE]			31.00
CCCCCCCC=O [ALDEHYDE C 8 (OCTANAL), OCTANAL]	4.6	4.6	
CCC=C(C)C(O)CCCCC (centres unmarked) [UNDECAVERTOL, 4-Methyl-3-decen-5-ol]	26	26	
CCCCCCC#CC(=O)OC [METHYL OCTINE CARBONATE]		9.7	
CCCCCCCCCCC=CC#N [TRIDECEN 2 NITRILE]	6.7		
